{
  "source": "patent US6566368B2",
  "about": "“Apomorphine-containing dosage form for ameliorating male erectile dysfunction” (Pentech Pharmaceuticals, Inc., priority 1994, dated 2003)",
  "key": {"[1]": {"test_system": "men with psychogenic male erectile dysfunction (MED)", "assay": "Pilot Study #6, third phase: home use, reported success of intercourse (Sexual Function questionnaire)", "assay_type": "in vivo, human", "settings": "for Reported Success by Tablet Strength: home use; for Reported Success, Overall: all doses, 20/29", "text": "The third phase, a home-use phase, lasted 5 weeks. During this phase, subjects attempted coitus at least once each week after taking a single APO tablet. After each attempt the subject and their partner completed a Sexual Function questionnaire (Table XVII).\nDuring the third phase, subjects had recorded at baseline, their satisfaction, erection, number of attempts, and successful intercourse on a VAS scale. Evaluable subjects first recorded a success rate, then completed VAS for erection results and satisfaction with intercourse following take-home treatment. Success rate was calculated for mg as well as μg/kg body weight doses (males). Several evaluations of the data were made including the male and female responses to treatments. The overall average success rate is 69% with APO treatment which is much higher than the average baseline rate 28% (Tables XXI, XXII)."}, "[2]": {"test_system": "patients with psychogenic impotence"}, "[3]": {"test_system": "patients with psychogenic impotence", "remark": "listed apart in the source"}, "[4]": {"settings": "cited from earlier work"}, "[5]": {"test_system": "men with psychogenic male erectile dysfunction (MED)", "assay": "Pilot Study #6, third phase: home use, reported success of intercourse (Sexual Function questionnaire)", "assay_type": "in vivo, human", "settings": "4 or 6 mg APO sublingual tablets"}, "clinical": {"assay": "clinical", "settings": "male, human, in vivo"}, "[6]": {"settings": "liquid apomorphine sublingual, 10 mg and 20 mg, ten evaluable patients"}, "[7]": {"settings": "liquid sublingual 10 mg and 20 mg"}, "[8]": {"settings": "sublingual tablets 2.5 mg and 5 mg, seven evaluable patients"}, "[9]": {"settings": "Durif, F. et al., s.l., 7 × 3 mg tablets, 0.3 mg/kg, 7 subjects"}, "[10]": {"settings": "Durif, F. et al., s.l., 14 × 3 mg tablets, 0.6 mg/kg, 7 subjects"}, "[11]": {"settings": "Gancher, S. T., et al., s.c., 0.02 mg/kg, 5 subjects"}, "[12]": {"settings": "Gancher, S. T., et al., s.l., 3 × 6 mg tablets, 0.25 mg/kg, 5 subjects"}, "[13]": {"settings": "Montastruc, J. L., et al., s.c., 0.04 mg/kg, 9 subjects"}, "[14]": {"settings": "Montastruc, J. L., et al., s.l., 10 × 3 mg tablets, 0.42 mg/kg, 9 subjects"}},
  "note": "Several values for one entry are separate records, joined by “and”; a condition that tells them apart may be missing. Equal entries are not always repeated. Where two headings read alike, the source gives them in different places.",
  "data": [
    {"smiles": "CN1CCc2cccc3c2[C@H]1Cc1ccc(O)c(O)c1-3", "note": "[apomorphine]", "values": [
      {"measurement": "Reported Success by Tablet Strength", "setting": "[1]; Female group, 4 mg", "value": "5/7 (71.4%)"},
      {"measurement": "Reported Success by Tablet Strength", "setting": "[1]; Female group, 8 mg", "value": "4/7 (57.1%)"},
      {"measurement": "Reported Success by Apomorphine Dosage", "setting": "[1]; Female group, 35-50 μg/kg", "value": "3/5 (60.0%)"},
      {"measurement": "Reported Success by Apomorphine Dosage", "setting": "[1]; Female group, 50-74 μg/kg", "value": "9/11 (81.8%)"},
      {"measurement": "Reported Success by Apomorphine Dosage", "setting": "[1]; Female group, 50-74 μg/kg, listed as APO", "value": 82, "unit": "%"},
      {"measurement": "Reported Success by Apomorphine Dosage", "setting": "[1]; Female group, >74 μg/kg", "value": "8/13 (61.5%)"},
      {"measurement": "Reported Success, Overall", "setting": "[1]; Female group", "value": "(69.0%)"},
      {"measurement": "Reported Success by Tablet Strength", "setting": "[1]; Male group, 4 mg", "value": "5/7 (71.4%)"},
      {"measurement": "Reported Success by Tablet Strength", "setting": "[1]; Male group, 8 mg", "value": "4/7 (57.1%)"},
      {"measurement": "Reported Success by Apomorphine Dosage", "setting": "[1]; Male group, 35-50 μg/kg", "value": "4/5 (80.0%)"},
      {"measurement": "Reported Success by Apomorphine Dosage", "setting": "[1]; Male group, 50-74 μg/kg", "value": "8/11 (72.7%)"},
      {"measurement": "Reported Success by Apomorphine Dosage", "setting": "[1]; Male group, 50-74 μg/kg, listed as APO", "value": 80, "unit": "%"},
      {"measurement": "Reported Success by Apomorphine Dosage", "setting": "[1]; Male group, >74 μg/kg", "value": "8/13 (61.5%)"},
      {"measurement": "Reported Success, Overall", "setting": "[1]; Male group", "value": "(69.0%)"},
      {"measurement": "overall average success rate", "setting": "[1]; take-home APO treatment, average baseline rate 28%", "value": 69, "unit": "%"},
      {"measurement": "failures with apomorphine", "setting": "[2]; [6]", "value": 30, "unit": "%"},
      {"measurement": "successes (score of no less than 16 on both neutral and erotic video segments)", "setting": "[2]; [6]", "value": 70, "unit": "%"},
      {"measurement": "adverse effects", "setting": "[2]; [7]", "value": "Adverse effects were reported at both dose levels"},
      {"measurement": "erectile response", "setting": "[2]; [7]", "value": "produce erectile responses"},
      {"measurement": "longest duration of side effects", "setting": "[2]; [7]", "value": "30 to 40", "unit": "min"},
      {"measurement": "onset of adverse effects", "setting": "[2]; [7]", "value": "ten to fifteen"},
      {"measurement": "yawns per session", "setting": "[2]; liquid sublingual 10 mg and 20 mg, each patient", "value": "two to five"},
      {"measurement": "erectile response", "setting": "[2]; liquid sublingual 10 mg and 20 mg, listed as Apomorphine", "value": "effective in inducing erectile episodes without increasing libido"},
      {"measurement": "patients successful with apomorphine among those who had failed a trial of yohimbine HCl", "setting": "[2]; of group of eight, liquid sublingual 10 mg and 20 mg", "value": 6},
      {"measurement": "patients developing nausea, diaphoresis, dizziness, blurred vision, decrease in blood pressure and heart rate", "setting": "[2]; of ten evaluable, liquid sublingual 10 mg and 20 mg", "value": "eight"},
      {"measurement": "yawns per session", "setting": "[3]; 2.5 mg dose, patients who failed testing", "value": "one or two"},
      {"measurement": "yawning responses per session", "setting": "[3]; 5 mg dose", "value": "three to five"},
      {"measurement": "adverse effects", "setting": "[3]; sublingual tablet 2.5 mg, the two successful patients", "value": "did not produce adverse effects"},
      {"measurement": "adverse effects (nausea, diaphoresis, dizziness, blurred vision, facial flushing, drop in heart rate and blood pressure)", "setting": "[3]; sublingual tablet 5 mg", "value": "produced adverse effects"},
      {"measurement": "failures during lab testing", "setting": "[3]; [8]", "value": 71, "unit": "%"},
      {"measurement": "successes (score of no less than 16) during lab testing", "setting": "[3]; [8]", "value": "28% and 29%"},
      {"measurement": "erectile response", "setting": "[3]; sublingual tablets 2.5 and 5 mg", "value": "produced erectile responses in some patients"},
      {"measurement": "time for sublingual tablets to dissolve", "setting": "[3]; sublingual tablets 2.5 and 5 mg, under the tongue", "value": "five"},
      {"measurement": "yawns", "setting": "[3]; the two successful patients, 2.5 mg and 5 mg doses", "value": "three to five"},
      {"measurement": "Cmax", "setting": "[4]; Durif, F. et al., Clin. Neuropharm. 16:157-166, s.l., 7 × 3 mg tablets, 0.3 mg/kg, 7 subjects", "value": 7.5, "unit": "ng/mL"},
      {"measurement": "AUC", "setting": "[4]; [9]", "value": 929, "unit": "ng·min/mL"},
      {"measurement": "Cl", "setting": "[4]; [9]", "value": 35, "unit": "mL/min/kg"},
      {"measurement": "MRT", "setting": "[4]; [9]", "value": 128, "unit": "min"},
      {"measurement": "Tmax", "setting": "[4]; [9]", "value": 31.5, "unit": "min"},
      {"measurement": "Vd", "setting": "[4]; [9]", "value": 3.4, "unit": "L/kg"},
      {"measurement": "AUC", "setting": "[4]; [10]", "value": "2,277 min*ng/ml"},
      {"measurement": "Cl", "setting": "[4]; [10]", "value": 30, "unit": "mL/min/kg"},
      {"measurement": "Cmax", "setting": "[4]; [10]", "value": 22.7, "unit": "ng/mL"},
      {"measurement": "MRT", "setting": "[4]; [10]", "value": 125, "unit": "min"},
      {"measurement": "Tmax", "setting": "[4]; [10]", "value": 38.3, "unit": "min"},
      {"measurement": "Vd", "setting": "[4]; [10]", "value": 2.8, "unit": "L/kg"},
      {"measurement": "Cmax", "setting": "[4]; Gancher, S. T., et al., Movement Disorders 6:212-216 (1991), s.l., 3 × 6 mg tablets, 0.25 mg/kg, 5 subjects", "value": 14.3, "unit": "ng/mL"},
      {"measurement": "Vd", "setting": "[4]; Gancher, S. T., et al., i.v., […], 5 subjects, *Calculated", "value": "0.043* l/kg"},
      {"measurement": "Tmax", "setting": "[4]; Gancher, S. T., et al., i.v., […], 5 subjects", "value": 6.7, "unit": "min"},
      {"measurement": "AUC", "setting": "[4]; [11]", "value": 592.7, "unit": "ng·min/mL"},
      {"measurement": "Cmax", "setting": "[4]; [11]", "value": 19.36, "unit": "ng/mL"},
      {"measurement": "Tmax", "setting": "[4]; [11]", "value": 6.5, "unit": "min"},
      {"measurement": "AUC", "setting": "[4]; [12]", "value": "1,057 min*ng/ml"},
      {"measurement": "Tmax", "setting": "[4]; [12]", "value": 45, "unit": "min"},
      {"measurement": "Cmax", "setting": "[4]; Montastruc, J. L., et al., Clin. Neuropharmacol. 14:432-437 (1991), s.l., 10 × 3 mg tablets, 0.42 mg/kg, 9 subjects", "value": 28, "unit": "ng/mL"},
      {"measurement": "AUC", "setting": "[4]; [13]", "value": 837, "unit": "ng·min/mL"},
      {"measurement": "Cmax", "setting": "[4]; [13]", "value": 26, "unit": "ng/mL"},
      {"measurement": "Tmax", "setting": "[4]; [13]", "value": 18, "unit": "min"},
      {"measurement": "AUC", "setting": "[4]; [14]", "value": "1,882 min*ng/ml"},
      {"measurement": "Tmax", "setting": "[4]; [14]", "value": 41, "unit": "min"},
      {"measurement": "men with MED in whom erections were caused", "setting": "[5]", "value": 72, "unit": "%"},
      {"measurement": "Vd", "setting": "clinical; 0.06 mg/kg", "value": 2.33, "unit": "L/kg"},
      {"measurement": "clearance", "setting": "clinical; iv, 0.01 mg/kg, Cl", "value": 72.8, "unit": "mL/min/kg"},
      {"measurement": "Vd", "setting": "clinical; iv, 0.01 mg/kg", "value": 3.35, "unit": "L/kg"}
    ]}
  ]
}
